Like-named read-outs stand apart in the source and are kept apart here.
What was measured:
mouse [1] = experiment: Phenylquinone test, analgesic activity by the oral route; format: in vivo
Method: (§1) The analgesic activity of the compound of formula I by the oral route, has been determined in the mouse using the following tests: • - Phenylquinone test (Hendershot and Forsaith - J. Pharma- col. Exptl. Ther. 123, 237 (1959)); • - Hot-plate test. Male albino mice, treated with increasing doses of the compound under exam, are placed on a plate thermostatized at 55°C. An effective dose 50 (ED50) is defined as the dose inducing a 50% increase of the reaction time to the pain stimulus.

Male albino mice = experiment: Hot-plate test (plate at 55°C), analgesic activity by the oral route; format: in vivo, mouse; details: read-out: Hot place EX50
Method: as §1

Acute toxicity per os = details: in vivo, po, mouse, at the 14th observation day
Description: The acute toxicity per os is expressed as LD50 at the 14th observation day.

mouse [2] = experiment: Jumping by nalorphine (physical addiction); format: in vivo
cyclooxygenase [3] = experiment: Cyclooxygenase inhibitory activity; format: biochemical
[4] = test system: prostaglandine-synthetase; experiment: Prostaglandine-synthetase inhibitory activity; format: biochemical
cyclooxygenase [5] = details: background statement on the known drug; cited from earlier work
[6] = test system: prostaglandine-synthetase; details: background statement on the known drug; cited from earlier work

| SMILES | ED50 (mouse [1]) | ED50 (Male albino mice; Mus musculus, po) | ED50 (Male albino mice; mouse, oral route, plate at 55°C, dose inducing a 50% increase of the reaction time to the pain stimulus) | LD50 at 336 h (Acute toxicity per os) | jumping by nalorphine (mouse [2]) | cyclooxygenase inhibitory activity (cyclooxygenase [3]) | prostaglandine-synthetase inhibitory activity [4] | capacity of inhibiting cyclooxygenase (cyclooxygenase [5]) | capacity of inhibiting prostaglandine-synthetase [6] |
| --- | --- | --- | --- | --- | --- | --- | --- | --- | --- |
| COc1ccc2c3c1O[C@H]1[C@@H](O)C=C[C@H]4[C@@H](C2)N(C)CC[C@@]341.Cl [Codeine HCl, codeine hydrochloride, reference compound] | 5.6 mg/kg | 25 mg/kg | – | – | – | – | – | – | – |
| Cc1c(C(=O)O)c(C)n(C)c1C(=O)c1ccc(F)cc1 [Compound I, 5-(4-fluoro-benzoyl)-1,2,4-trimethyl-3-pyrrolcarboxylic acid] | 2.1 mg/kg | – | 3.5 mg/kg | > 1600 mg/kg | does not induce | without cyclooxygenase and prostaglandine-synthetase inhibitory activity | without cyclooxygenase and prostaglandine-synthetase inhibitory activity | – | – |
| Cc1cc(CC(=O)O)n(C)c1C(=O)c1ccc(Cl)cc1 [zomepirac, 5-(p-chlorobenzoyl)-l,4-dimethylpyrrole-2-acetic acid] | – | – | – | – | – | – | – | capacity of inhibiting the enzymes cyclooxygenase and prostaglandine-synthetase | capacity of inhibiting the enzymes cyclooxygenase and prostaglandine-synthetase |
